From US20260297105A1, “RAF-MEK PROTEIN COMPLEX MODULATORS AND METHODS OF USE THEREOF” (GANDEEVA THERAPEUTICS, INC., priority 2023, published 2026)

Assays:
MEK1 = target: T1, MEK1 (Homo sapiens, UniProt Q02750); test: MEK1 kinase cascade assay (ADP-Glo), inhibition of MEK1 kinase activity; format: biochemical; conditions: 25 nM BRAF, 6.25 nM MEK1, 0.5 μM ERK, 1 mM ATP; 20 min preincubation, 1 hr at 25° C.; read-out: BRAF ADP Glo kinase assay V3 (IC50)
T1 construct: purchased SignalChem M02-14H
Procedure, shortened: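 Cascade format with ADP-Glo read-out: BRAF (25 nM) and compound, 1% DMSO, 20 mins at 25° C, then MEK1 6.25 nM, ERK1 0.5 μM, ATP 1 mM for 1 hr at 25° C in HEPES pH 7.5 buffer with MgCl2, CHAPS and DTT. Percent inhibition, scaled between DMSO and 1 μM Trametinib, was fit by 4-parameter logistic to give IC50 (2 replicate wells).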

BRAF-MEK1 = test: BRAF-MEK TR-FRET assay, stabilization of MEK1 and BRAF interaction; format: binding; conditions: 4 nM BRAF, 10 nM MEK, 100 μM ATP; 1 hr at 25° C.; read-out: BRAF-MEK TR-FRET Assay (EC50, fold stabilization)
Procedure, shortened: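 Read-out is fold stabilization (treated FRET ratio/DMSO, Em 665/620 nm), fit 4-parameter for EC50 from 2 replicates. Compounds sat with 4 nM GST-BRAF and 10 nM in-house His-MEK1 1 h at 25° C (Tris pH 7.5, MgCl2, 100 μM ATP), then detection antibodies 1 h.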

p-ERK1/2 in HCT116 cells = test: AlphaLISA p-ERK assay, cellular inhibition of ERK phosphorylation in HCT116 cells; format: cell-based; conditions: Homo sapiens, HCT-116, 2 hours treatment, PMA stimulation 30 mins
Experimental: (§1) Cell culture: HCTI 16, HT-29, and NCI-H292 cells were acquired from American Type Culture Collection (ATCC). HCT116 and HT-29 cells were maintained in ATCC-formulated McCoy's 5a Medium Modified supplemented with 10% fetal bovine serum, NCI-H292 cells were cultured in ATCC formulated RPMI-1640 supplemented with 10% fetal bovine serum. All cells were maintained at 37° C., 5% CO2.
Efficacy of exemplary compounds in cellular inhibition of ERK phosphorylation: Phosphorylation status of ERK1/2 (p-ERK) was used as a readout for inhibition of BRAF-MEK pathway. p-ERK was detected using an immunoassay for quantitative detection of phospho-ERK 1/2 (phosphorylated on Thr202/Tyr204 in ERK1, or Thr185/Tyr187 in ERK2), such as the AlphaLISA® SureFire® Ultra™ p-ERK1/2 (Thr202/Tyr204) kit (Perkin Elmer). HCT116 cells were plated at 10,000 cells per well in 384-well TC-treated plates (Coming). Cells were plated for 24 hours, the medium was then aspirated and cells were treated with vehicle (DMSO) or test compounds (0.1% DMSO in final volume) prepared in serum free, phenol red free medium for 2 hours. Following treatment, cells were stimulated with PMA (1.25 μM/well) for 30 mins after which the medium was aspirated, and the cells were lysed for 10 mins with 1× lysis buffer supplemented with Halt Protease and Phosphatase Inhibitor Cocktail (Thermo Fisher). The lysate was transferred to a 384 well Alpha-plate (PerkinElmer) and incubated for 1 hour with acceptor bead mix followed by 1 hour incubation with donor bead mix. After incubation, the plate was read on a Cytation5 microplate reader (Agilent). % inhibition as a function of compound concentration from 3 replicate wells was fit with a 4-parameter logistic curve using GraphPad Prism or CDD Vault to derive IC50 values.
(§2) In this table, for the BRAF ADP Glo kinase assay, “A” indicates IC50 of less than 5 nM; “B” indicates IC50 of between 5 nM to 50 nM; and “C” indicates IC50 of between 50 nM to 500 nM. “D” indicates IC50 of greater than 500 nM. For the BRAF-MEK TR-FRET assay, “A” indicates EC50 of less than 50 nM; “B” indicates EC50 of between 50 nM to 200 nM; and “C” indicates EC50 of between 200 nM to 1 μM. “D′” indicates EC50 of greater than 1 μM. For the AlphaLisa P-ERK assay, “A” indicates IC50 of less than 1 nM; “B” indicates IC50 of between 1 nM to 10 nM; and “C” indicates IC50 of between 10 nM to 100 nM. “D” indicates IC50 of greater than 100 nM. For the cell viability assay, “A” indicates IC50 of less than 1 nM; “B” indicates IC50 of between 1 nM to 10 nM; and “C” indicates IC50 of between 10 nM to 100 nM. “D” indicates IC50 of greater than 100 nM.

NCI-H292 cells = test: Cell viability assay (CellTiter-Glo), NCI-H292; format: cell-based; conditions: Homo sapiens, 72 hrs, read-out: Cell Viability Assay: IC50 Determination NCI-H292
Experimental: as §1
Efficacy of exemplary compounds in inhibition of cell viability: HCT116 and HT-29 cells were plated at 4,000 cells per well and NCI-H292 cells were plated at 2,000 cells per well in their respective media in 384-well white, TC-treated plates (Corning). After 24 hours of incubation, the cells were treated with vehicle (DMSO) or test compounds (0.1% DMSO in final volume) for 72 hrs. The plate was equilibrated at room temperature for 10 mins followed by addition of a 1:1 volume of CellTiter-Glo® reagent (Promega). The contents were mixed for 2 mins on an orbital shaker to induce lysis. The plate was incubated at room temperature for 10 mins to stabilize luminescent signal before measuring luminescence on a Cytation5 microplate reader (Agilent). % inhibition as a function of compound concentration from 3 replicate wells was fit with a 4-parameter logistic curve using GraphPad Prism or CDD Vault to derive IC50 values.
as §2

T1 sequence (Q02750 whole entry): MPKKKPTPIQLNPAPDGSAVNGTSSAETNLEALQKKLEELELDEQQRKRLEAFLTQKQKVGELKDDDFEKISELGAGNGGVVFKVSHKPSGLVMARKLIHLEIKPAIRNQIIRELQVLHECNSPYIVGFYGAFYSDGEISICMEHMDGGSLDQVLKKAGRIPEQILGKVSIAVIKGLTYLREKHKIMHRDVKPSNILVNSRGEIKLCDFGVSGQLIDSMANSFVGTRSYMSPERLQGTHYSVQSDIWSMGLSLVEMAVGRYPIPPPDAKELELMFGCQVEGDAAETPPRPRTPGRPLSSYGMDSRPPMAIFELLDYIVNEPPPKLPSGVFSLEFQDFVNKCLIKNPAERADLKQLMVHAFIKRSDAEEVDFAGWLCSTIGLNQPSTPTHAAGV
T1 sequence (P15056 445-723 partner limits assumed): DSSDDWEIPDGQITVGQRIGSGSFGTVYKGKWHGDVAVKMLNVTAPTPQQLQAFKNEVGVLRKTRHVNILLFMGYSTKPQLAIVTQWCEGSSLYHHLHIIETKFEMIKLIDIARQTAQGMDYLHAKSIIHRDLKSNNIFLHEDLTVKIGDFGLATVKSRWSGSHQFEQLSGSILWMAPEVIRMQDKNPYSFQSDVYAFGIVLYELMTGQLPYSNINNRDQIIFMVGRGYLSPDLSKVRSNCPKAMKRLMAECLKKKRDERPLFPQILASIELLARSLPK

For `CNS(=O)(=O)Nc1cccc(CN2Cc3ccc(OC(=O)N(C)C)c(F)c3OC2=O)c1F` [Compound 131, 8-fluoro-3-(2-fluoro-3-((N-methylsulfamoyl)amino)benzyl)-2-oxo-3,4-dihydro-2H-benzo[e][1,3]oxazin-7-yl dimethylcarbamate], the IC50 (MEK1) was < 5 nM, the EC50 (BRAF-MEK1) was 50 to 200 nM and the IC50 (p-ERK1/2 in HCT116 cells) was 1 to 10 nM. The IC50 (NCI-H292 cells) was 1 to 10 nM.
For `CNS(=O)(=O)Nc1cccc(CN2Cc3ccc(Oc4ncco4)cc3OC2=O)c1F` [Compound 80, 3-({2-fluoro-3-[(methylsulfamoyl)amino]phenyl}methyl)-7-(1,3-oxazol-2-yloxy)-3,4-dihydro-2H-1,3-benzoxazin-2-one], the IC50 (MEK1) was 5 to 50 nM, the EC50 (BRAF-MEK1) was 200 to 1000 nM and the IC50 (p-ERK1/2 in HCT116 cells) was 10 to 100 nM. For the same compound, the IC50 (NCI-H292 cells) was 1 to 10 nM.
With `CNS(=O)(=O)Nc1cccc(CN2Cc3ccc(Oc4cccnn4)cc3OC2=O)c1F` [Compound 105, 3-({2-fluoro-3-[(methylsulfamoyl)amino]phenyl}methyl)-7-(pyridazin-3-yloxy)-3,4-dihydro-2H-1,3-benzoxazin-2-one] the IC50 (MEK1) was < 5 nM, the EC50 (BRAF-MEK1) was < 50 nM and the IC50 (p-ERK1/2 in HCT116 cells) was 1 to 10 nM. It also gave an IC50 (NCI-H292 cells) of 1 to 10 nM.
With `CNS(=O)(=O)Nc1nccc(CN2Cc3ccc(Oc4nccnn4)cc3OC2=O)c1F` [Compound 164, 3-{[3-fluoro-2-(methylaminosulfonylamino)-4-pyridyl]methyl}-7-(1,2,4-triazin-3-yloxy)-3,4-dihydro-2H-1,3-benzoxazin-2-one] the IC50 (MEK1) was 5 to 50 nM, the EC50 (BRAF-MEK1) was < 50 nM and the IC50 (p-ERK1/2 in HCT116 cells) was 10 to 100 nM. The IC50 (NCI-H292 cells) was < 1 nM.
In the case of `CNS(=O)(=O)Nc1cccc(CN2C(=O)Oc3cc(Oc4cccnn4)c(F)cc3C23COC3)c1F` [Compound 58, 6-fluoro-3-({2-fluoro-3-[(methylsulfamoyl)amino]phenyl}methyl)-7-(pyridazin-3-yloxy)-2,3-dihydrospiro[1,3-benzoxazine-4,3′-oxetan]-2-one], the IC50 (MEK1) is reported as < 5 nM, the EC50 (BRAF-MEK1) is reported as < 50 nM and the IC50 (p-ERK1/2 in HCT116 cells) is reported as < 1 nM. For the same compound, the IC50 (NCI-H292 cells) was < 1 nM.
`CNS(=O)(=O)Nc1cccc(CN2C(=O)Oc3cc(Oc4cccnn4)ccc3[C@@H]2C)c1F` (single isomer, unassigned) [Compound 72, (R)-3-({2-fluoro-3-(methylsulfamoyl)amino]phenyl}methyl)-4-methyl-7-(pyridazin-3-yloxy)-3,4-dihydro-2H-1,3-benzoxazin-2-one or (S)-3-({2-fluoro-3-(methylsulfamoyl)amino]phenyl}methyl)-4-methyl-7-(pyridazin-3-yloxy)-3,4-dihydro-2H-1,3-benzoxazin-2-one] showed an IC50 (MEK1) of 5 to 50 nM, an EC50 (BRAF-MEK1) of 50 to 200 nM and an IC50 (p-ERK1/2 in HCT116 cells) of 1 to 10 nM. For the same compound, the IC50 (NCI-H292 cells) was 1 to 10 nM.
`CNS(=O)(=O)Nc1cccc(CN2C(=O)Oc3c(ccc(Oc4cccnn4)c3F)[C@@H]2C)c1F` (single isomer, unassigned) [Compound 35] was tested, and the IC50 (MEK1) was < 5 nM, the EC50 (BRAF-MEK1) was 50 to 200 nM and the IC50 (p-ERK1/2 in HCT116 cells) was 10 to 100 nM. For the same compound, the IC50 (NCI-H292 cells) was 10 to 100 nM.
`CNS(=O)(=O)Nc1cccc(CN2C(=O)Oc3cc(OC(=O)N(C)C)ccc3C23COC3)c1F` [Compound 115, 3-({2-fluoro-3-[(methylsulfamoyl)amino]phenyl}methyl)-2-oxo-2,3-dihydrospiro[1,3-benzoxazine-4,3′-oxetan]-7-yl N,N-dimethylcarbamate] was tested, and the IC50 (MEK1) was < 5 nM, the EC50 (BRAF-MEK1) was 50 to 200 nM and the IC50 (p-ERK1/2 in HCT116 cells) was 1 to 10 nM. For the same compound, the IC50 (NCI-H292 cells) was < 1 nM.
`CNS(=O)(=O)Nc1cccc(CN2C(=O)Oc3cc(Oc4cccnn4)cc(F)c3C23COC3)c1F` [Compound 63] showed an IC50 (MEK1) of 5 to 50 nM, an EC50 (BRAF-MEK1) of 50 to 200 nM and an IC50 (p-ERK1/2 in HCT116 cells) of 1 to 10 nM. The IC50 (NCI-H292 cells) was 1 to 10 nM.
With `CNS(=O)(=O)Nc1cccc(CN2Cc3ccc(Oc4ccccn4)cc3OC2=O)c1F` [Compound 65, 3-({2-fluoro-3-[(methylsulfamoyl)amino]phenyl}methyl)-7-(pyridin-2-yloxy)-3,4-dihydro-2H-1,3-benzoxazin-2-one] the IC50 (MEK1) was < 5 nM, the IC50 (p-ERK1/2 in HCT116 cells) was 10 to 100 nM and the IC50 (NCI-H292 cells) was 10 to 100 nM.
In the case of `CN(C)S(=O)(=O)Nc1cccc(CN2C(=O)Oc3cc(Oc4cccnn4)ccc3C23COC3)c1F` [Compound 64, 3-({3-[(dimethylsulfamoyl)amino]-2-fluorophenyl}methyl)-7-(pyridazin-3-yloxy)-2,3-dihydrospiro[1,3-benzoxazine-4,3′-oxetan]-2-one], the IC50 (MEK1) is reported as < 5 nM, the EC50 (BRAF-MEK1) is reported as 50 to 200 nM and the IC50 (p-ERK1/2 in HCT116 cells) is reported as 1 to 10 nM. The IC50 (NCI-H292 cells) was 1 to 10 nM.
For `O=C1Oc2cc(Oc3cccnn3)ccc2C2(COC2)N1Cc1cccc(NS(=O)(=O)C2CC2)c1F` [Compound 59, N-(2-fluoro-3-{[2-oxo-7-(pyridazin-3-yloxy)-2,3-dihydrospiro[1,3-benzoxazine-4,3′-oxetan]-3-yl]methyl}phenyl)cyclopropanesulfonamide], the IC50 (MEK1) was 5 to 50 nM, the IC50 (p-ERK1/2 in HCT116 cells) was 1 to 10 nM and the IC50 (NCI-H292 cells) was 1 to 10 nM.
For `O=C1Oc2cc(Oc3nccnn3)ccc2C2(CCC2)N1Cc1ccnc(NS(=O)(=O)C2CC2)c1F` [Compound 161, (cyclopropylsulfonyl)[3-fluoro-4-({2-oxo-7-(1,2,4-triazin-3-yloxy)-2H,3H-spiro[1,3-benzoxazine-4,1′-cyclobutan]-3-yl}methyl)-2-pyridyl]amine], the EC50 (BRAF-MEK1) was 50 to 200 nM, the IC50 (p-ERK1/2 in HCT116 cells) was 10 to 100 nM and the IC50 (NCI-H292 cells) was 1 to 10 nM.
For `CNS(=O)(=O)Nc1cccc(CN2Cc3ccc(C(F)(F)C(=O)N(C)C)cc3OC2=O)c1F` [Compound 133], the IC50 (MEK1) was 5 to 50 nM, the IC50 (p-ERK1/2 in HCT116 cells) was 10 to 100 nM and the IC50 (NCI-H292 cells) was 10 to 100 nM.
With `CNS(=O)(=O)Nc1nccc(CN2Cc3ccc(Oc4ncco4)cc3OC2=O)c1F` [Compound 162, 3-{[3-fluoro-2-(methylaminosulfonylamino)-4-pyridyl]methyl}-7-(1,3-oxazol-2-yloxy)-3,4-dihydro-2H-1,3-benzoxazin-2-one] the EC50 (BRAF-MEK1) was 50 to 200 nM, the IC50 (p-ERK1/2 in HCT116 cells) was 10 to 100 nM and the IC50 (NCI-H292 cells) was 1 to 10 nM.
With `CNS(=O)(=O)Nc1cccc(CN2Cc3cc(Cl)c(Oc4ncccn4)cc3OC2=O)c1F` [Compound 148, 6-chloro-3-({2-fluoro-3-[(methylsulfamoyl)amino]phenyl}methyl)-7-(pyrimidin-2-yloxy)-3,4-dihydro-2H-1,3-benzoxazin-2-one] the IC50 (MEK1) was 5 to 50 nM, the IC50 (p-ERK1/2 in HCT116 cells) was 10 to 100 nM and the IC50 (NCI-H292 cells) was 10 to 100 nM.
In the case of `O=C1Oc2cc(Oc3ccccn3)ccc2CN1Cc1cccc(NS(=O)(=O)C2CC2)c1F` [Compound 62, N-(2-fluoro-3-((2-oxo-7-(pyridin-2-yloxy)-2H-benzo[e][1,3]oxazin-3(4H)-yl)methyl)phenyl)cyclopropanesulfonamide], the IC50 (MEK1) is reported as 5 to 50 nM, the IC50 (p-ERK1/2 in HCT116 cells) is reported as > 100 nM and the IC50 (NCI-H292 cells) is reported as > 100 nM.
